# ChEMBL document CHEMBL1201862, “PubChem BioAssay data set” (2004)
# The source made the active and inactive calls.
# Key:
# [1] = Luminescence Cell-Based Dose Response HTS to Identify Activators of Luciferase Translation or Activity in H4 […] Cells. [Related pubchem assays: 1829 (Project Summary), 1814 (Primary HTS)]; type: functional
# [2] = target: Heat shock protein HSP 90-alpha (Homo sapiens, UniProt P07900); type: functional, organism-based
# [3] = Luminescence Cell-Based Dose Confirmation HTS to Identify Activators of 5'UTR Stem-Loop Driven Alpha-Synuclein mRNA Translation in H4 Neuroglioblastoma Cells. [Related pubchem assays: 1829 (Project Summary), 1814 (Primary HTS)]; type: functional
# H4 = assay: Luminescence Cell-Based Dose Response HTS to Identify Activators of 5'UTR Stem-Loop Driven Prion Protein mRNA Translation in H4 Neuroglioblastoma Cells. [Related pubchem assays: 1829 (Project Summary), 1814 (Primary HTS)]; type: functional; details: Homo sapiens
# [4] = target: T1, Microphthalmia-associated transcription factor (Homo sapiens, UniProt O75030); assay: TRPM1 promoter luciferase signal decrease, dose response, MITF inhibitor project, cell-based, SK-MEL-5, cherry-picked, set 3 (AID 493073); type: functional
# T1 sequence (O75030 whole entry): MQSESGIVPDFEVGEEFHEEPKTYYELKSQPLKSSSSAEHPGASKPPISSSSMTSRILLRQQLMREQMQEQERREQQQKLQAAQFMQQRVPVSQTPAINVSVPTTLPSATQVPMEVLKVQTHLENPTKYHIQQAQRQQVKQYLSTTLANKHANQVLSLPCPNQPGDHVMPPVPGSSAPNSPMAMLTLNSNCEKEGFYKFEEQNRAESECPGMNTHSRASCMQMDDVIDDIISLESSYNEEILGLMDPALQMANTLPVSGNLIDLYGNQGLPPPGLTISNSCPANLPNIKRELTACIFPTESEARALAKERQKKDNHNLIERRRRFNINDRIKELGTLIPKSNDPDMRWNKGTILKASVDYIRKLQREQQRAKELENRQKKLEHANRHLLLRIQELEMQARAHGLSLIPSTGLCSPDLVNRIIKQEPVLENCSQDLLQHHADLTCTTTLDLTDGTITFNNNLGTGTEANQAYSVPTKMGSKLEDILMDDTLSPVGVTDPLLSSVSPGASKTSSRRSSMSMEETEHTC
# INS1 = assay: beta cell apoptosis inhibitors, cytokine rescue, dose response, luminescence, retest (AID 449756); type: functional, cell-based; details: Rattus norvegicus;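 also: cell death triggered by IL-1 beta plus TNF-alpha plus IFN-gamma mixture; protective hits raise ATP signal compared with cytokine alone wells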
# Nonstructural protein 1 = Nonstructural protein 1 (Influenza A virus, UniProt Q194T2); type: functional, Influenza A virus (A/California/07/2009(H1N1))
# Aminopeptidase N = target: T2, Aminopeptidase N (Plasmodium falciparum FcB1/Columbia, UniProt O96935); assay: P. falciparum M1AAP inhibitors, biochemical, fluorogenic H-Leu-NHMec substrate, 1536-well (AID 1445); parameters: species or system Plasmodium falciparum 3D7, 3D7
# T2 sequence (O96935 whole entry): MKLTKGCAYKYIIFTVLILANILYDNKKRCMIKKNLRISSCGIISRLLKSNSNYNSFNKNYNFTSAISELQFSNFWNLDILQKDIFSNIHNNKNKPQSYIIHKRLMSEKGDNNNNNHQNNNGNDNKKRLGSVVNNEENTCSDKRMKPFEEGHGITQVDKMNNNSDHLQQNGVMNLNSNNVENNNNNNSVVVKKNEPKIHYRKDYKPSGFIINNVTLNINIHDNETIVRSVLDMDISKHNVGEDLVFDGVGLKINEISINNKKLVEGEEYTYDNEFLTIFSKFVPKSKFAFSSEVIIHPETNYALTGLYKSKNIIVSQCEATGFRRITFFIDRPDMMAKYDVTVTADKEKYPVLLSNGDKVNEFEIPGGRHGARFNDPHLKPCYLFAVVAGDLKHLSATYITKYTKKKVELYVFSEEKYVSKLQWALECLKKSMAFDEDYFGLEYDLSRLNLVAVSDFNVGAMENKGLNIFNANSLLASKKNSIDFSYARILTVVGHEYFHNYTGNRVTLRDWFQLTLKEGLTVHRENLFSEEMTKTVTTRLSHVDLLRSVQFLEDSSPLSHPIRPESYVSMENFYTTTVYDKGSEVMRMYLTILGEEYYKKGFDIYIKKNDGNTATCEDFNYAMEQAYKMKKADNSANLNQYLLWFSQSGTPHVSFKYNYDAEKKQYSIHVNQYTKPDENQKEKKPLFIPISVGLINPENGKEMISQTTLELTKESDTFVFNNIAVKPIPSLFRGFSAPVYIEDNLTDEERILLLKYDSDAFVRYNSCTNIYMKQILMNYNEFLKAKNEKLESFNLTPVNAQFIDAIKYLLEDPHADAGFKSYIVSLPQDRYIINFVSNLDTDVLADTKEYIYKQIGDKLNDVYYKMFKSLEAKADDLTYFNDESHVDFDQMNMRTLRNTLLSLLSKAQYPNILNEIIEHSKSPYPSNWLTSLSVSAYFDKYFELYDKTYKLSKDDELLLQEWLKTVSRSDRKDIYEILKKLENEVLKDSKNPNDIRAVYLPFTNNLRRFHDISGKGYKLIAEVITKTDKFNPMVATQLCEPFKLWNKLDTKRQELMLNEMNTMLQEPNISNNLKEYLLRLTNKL
# cells = type: functional
# Bcl-2-related protein A1 = target: T3, Bcl-2-related protein A1 (Mus musculus, UniProt Q07440); type: functional;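 also: confirmatory dose–response counterscreen on Bfl-1, used to check hits from a UBC13 polyubiquitin inhibitor campaign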
# T3 sequence (Q07440 whole entry): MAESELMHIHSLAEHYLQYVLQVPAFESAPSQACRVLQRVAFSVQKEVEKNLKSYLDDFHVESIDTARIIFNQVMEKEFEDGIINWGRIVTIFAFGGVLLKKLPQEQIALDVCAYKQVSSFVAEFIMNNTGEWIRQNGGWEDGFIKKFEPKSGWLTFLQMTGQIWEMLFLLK
# [5] = target: T4, Ubiquitin-conjugating enzyme E2 N (Homo sapiens, UniProt P61088); type: functional
# T4 sequence (P61088 whole entry): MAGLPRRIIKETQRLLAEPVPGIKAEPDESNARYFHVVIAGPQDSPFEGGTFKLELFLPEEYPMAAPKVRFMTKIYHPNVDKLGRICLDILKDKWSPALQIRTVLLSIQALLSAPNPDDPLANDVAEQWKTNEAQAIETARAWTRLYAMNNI
# [6] = target: T4, Ubiquitin-conjugating enzyme E2 N; type: functional; remark: listed apart in the source
# [7] = target: T5, Replicative DNA helicase DnaB (Mycobacterium tuberculosis, UniProt P9WMR3); assay: DnaB intein splicing inhibitors, dose response, biochemical, cell-free fluorescence (AID 449749); type: functional
# T5 sequence (P9WMR3 whole entry): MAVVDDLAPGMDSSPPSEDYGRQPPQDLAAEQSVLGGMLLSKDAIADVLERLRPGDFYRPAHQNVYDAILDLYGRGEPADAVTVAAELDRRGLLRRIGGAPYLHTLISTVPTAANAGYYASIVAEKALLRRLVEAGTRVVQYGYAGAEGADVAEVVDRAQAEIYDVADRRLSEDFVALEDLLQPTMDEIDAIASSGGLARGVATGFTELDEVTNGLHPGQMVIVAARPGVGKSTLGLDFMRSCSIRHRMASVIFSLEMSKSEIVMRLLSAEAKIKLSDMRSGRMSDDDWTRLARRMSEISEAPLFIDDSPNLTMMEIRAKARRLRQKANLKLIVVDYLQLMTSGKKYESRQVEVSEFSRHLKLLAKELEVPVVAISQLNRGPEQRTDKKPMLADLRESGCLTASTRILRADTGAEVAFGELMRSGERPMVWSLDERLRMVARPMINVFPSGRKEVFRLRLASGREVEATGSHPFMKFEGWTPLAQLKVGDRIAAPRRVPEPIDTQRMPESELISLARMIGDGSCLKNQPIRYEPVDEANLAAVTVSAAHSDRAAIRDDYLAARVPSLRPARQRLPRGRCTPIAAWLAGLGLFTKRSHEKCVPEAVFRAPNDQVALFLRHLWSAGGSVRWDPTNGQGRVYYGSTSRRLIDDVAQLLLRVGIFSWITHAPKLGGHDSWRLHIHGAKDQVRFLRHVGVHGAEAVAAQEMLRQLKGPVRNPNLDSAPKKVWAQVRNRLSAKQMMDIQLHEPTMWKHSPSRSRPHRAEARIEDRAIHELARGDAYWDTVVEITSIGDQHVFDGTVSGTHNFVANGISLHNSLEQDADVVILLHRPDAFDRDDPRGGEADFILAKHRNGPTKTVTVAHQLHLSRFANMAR
# [8] = target: T6, Heat shock factor protein 1 (Mus musculus, UniProt P38532); assay: HSF1 potentiators in luciferase reporter cells, confirmation, cell-based, NIH3T3, luminescence, dose retest (AID 435004); type: functional;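 also: stress induced by proteasome inhibitor MG132 added 30 min after compound; luciferase reporter driven by HSF1 response element in NIH3T3 cells; actives raise luminescence as potentiators of the MG132 stress response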
# T6 sequence (P38532 whole entry): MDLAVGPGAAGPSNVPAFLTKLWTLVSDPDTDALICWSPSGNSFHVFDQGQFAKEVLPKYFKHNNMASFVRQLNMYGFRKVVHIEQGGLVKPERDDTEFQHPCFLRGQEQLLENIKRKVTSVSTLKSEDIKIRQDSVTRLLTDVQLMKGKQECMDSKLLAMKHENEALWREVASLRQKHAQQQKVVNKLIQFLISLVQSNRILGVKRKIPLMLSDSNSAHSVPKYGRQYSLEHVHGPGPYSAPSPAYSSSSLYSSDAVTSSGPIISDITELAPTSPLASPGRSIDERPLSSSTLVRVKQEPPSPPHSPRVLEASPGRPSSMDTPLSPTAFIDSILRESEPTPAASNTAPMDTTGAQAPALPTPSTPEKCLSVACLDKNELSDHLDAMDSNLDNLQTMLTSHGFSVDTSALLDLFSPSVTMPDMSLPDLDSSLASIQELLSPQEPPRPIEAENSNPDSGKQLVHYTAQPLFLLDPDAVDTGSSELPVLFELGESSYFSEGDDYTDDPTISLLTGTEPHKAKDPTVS
# Protein RecA = target: T7, Protein RecA (Mycobacterium tuberculosis, UniProt P9WHJ3); assay: Fluorescence Cell-Free Homogeneous Dose Retest to Identify Inhibitors of RecA-Intein Splicing Activity. [Related pubchem assays (depositor defined):AID2097, AID2223, AID489010, AID492950]; type: functional
# T7 sequence (P9WHJ3 whole entry): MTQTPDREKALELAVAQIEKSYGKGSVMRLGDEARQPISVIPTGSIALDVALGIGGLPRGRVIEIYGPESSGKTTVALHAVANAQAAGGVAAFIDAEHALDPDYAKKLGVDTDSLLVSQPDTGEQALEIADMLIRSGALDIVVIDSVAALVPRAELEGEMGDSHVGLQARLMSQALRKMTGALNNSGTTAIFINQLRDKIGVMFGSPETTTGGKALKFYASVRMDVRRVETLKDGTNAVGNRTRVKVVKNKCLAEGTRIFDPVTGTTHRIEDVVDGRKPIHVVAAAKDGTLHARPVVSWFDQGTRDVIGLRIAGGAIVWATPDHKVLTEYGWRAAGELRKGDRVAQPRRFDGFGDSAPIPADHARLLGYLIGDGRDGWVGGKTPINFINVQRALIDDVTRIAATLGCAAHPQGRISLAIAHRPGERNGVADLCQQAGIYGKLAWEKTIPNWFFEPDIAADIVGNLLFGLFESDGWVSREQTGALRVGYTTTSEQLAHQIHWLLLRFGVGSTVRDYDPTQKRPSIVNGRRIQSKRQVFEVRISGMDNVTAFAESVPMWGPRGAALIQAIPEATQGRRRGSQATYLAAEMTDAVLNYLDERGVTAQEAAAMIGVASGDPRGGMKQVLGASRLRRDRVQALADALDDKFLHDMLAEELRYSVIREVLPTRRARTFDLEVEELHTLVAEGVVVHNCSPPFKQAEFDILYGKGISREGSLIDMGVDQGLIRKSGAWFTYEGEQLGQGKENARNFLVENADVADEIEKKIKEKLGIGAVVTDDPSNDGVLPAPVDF
# [9] = ZM109 Env clade C HIV-1 fusion inhibitors, dose response, HeLa effector, CEM target cells, luciferase, cherry-pick (AID 652058); type: functional, cell-based
# [10] = inhibitors of HIV Env-driven cell fusion, dose response, cherry-pick (AID 652057); type: functional, cell-based
# [11] = inhibitors of clade B AD8 Env fusion, dose response, cell-based, cherry-pick (AID 652062); type: functional;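 also: luciferase signal from cell-cell fusion driven by HIV-1 clade B AD8 Env; potency is for inhibitors of fusion seen as a drop in luminescence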
# Large T antigen = Large T antigen (Simian virus 40, UniProt P03070); type: functional, Betapolyomavirus macacae;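 also: Confirmatory-stage PubChem screen for compounds that inhibit SV40 T antigen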
# Sequence of Large T antigen (P03070 whole entry): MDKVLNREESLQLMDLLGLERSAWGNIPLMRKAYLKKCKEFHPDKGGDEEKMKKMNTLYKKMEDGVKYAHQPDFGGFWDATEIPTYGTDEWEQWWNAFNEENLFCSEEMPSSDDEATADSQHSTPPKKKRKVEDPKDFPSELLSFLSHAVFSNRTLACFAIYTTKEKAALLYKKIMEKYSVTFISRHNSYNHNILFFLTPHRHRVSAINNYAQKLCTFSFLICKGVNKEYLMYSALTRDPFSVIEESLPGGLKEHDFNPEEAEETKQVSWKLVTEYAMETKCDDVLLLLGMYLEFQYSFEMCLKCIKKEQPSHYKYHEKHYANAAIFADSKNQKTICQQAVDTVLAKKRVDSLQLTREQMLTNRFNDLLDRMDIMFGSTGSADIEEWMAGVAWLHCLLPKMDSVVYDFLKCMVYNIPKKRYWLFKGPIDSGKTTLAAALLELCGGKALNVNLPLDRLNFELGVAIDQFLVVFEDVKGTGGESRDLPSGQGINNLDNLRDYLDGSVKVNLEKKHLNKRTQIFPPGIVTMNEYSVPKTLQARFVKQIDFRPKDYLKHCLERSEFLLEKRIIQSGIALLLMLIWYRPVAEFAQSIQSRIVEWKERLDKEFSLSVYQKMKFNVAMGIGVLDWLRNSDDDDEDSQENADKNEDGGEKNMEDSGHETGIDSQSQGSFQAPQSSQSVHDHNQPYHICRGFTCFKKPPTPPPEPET
# Sequence of Nonstructural protein 1 (Q194T2 whole entry): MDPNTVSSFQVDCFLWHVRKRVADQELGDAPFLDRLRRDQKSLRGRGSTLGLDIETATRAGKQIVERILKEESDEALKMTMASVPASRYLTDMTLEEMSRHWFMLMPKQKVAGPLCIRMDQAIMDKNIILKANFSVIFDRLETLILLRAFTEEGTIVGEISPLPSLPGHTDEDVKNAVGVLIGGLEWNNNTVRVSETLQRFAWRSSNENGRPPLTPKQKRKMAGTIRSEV
smiles,measurement,setting,value
O=C1CC(c2ccccc2)=NN1c1nc(-c2ccccc2)cs1,EC50,[1],11.4 µM (active)
same,AC50,[2],3.34 µM (active)
same,EC50,[3],13.2 µM (active)
same,EC50,H4,> 120 µM (not active)
CN(C)C1CCN(Cc2cc(COCc3ccccc3)c3cccnc3c2O)C1 (configuration not stated),AC50,[4],9.99 µM (active)
same,AC50,INS1,2.78 µM (active)
same,IC50,Nonstructural protein 1,5.98 µM (active)
Cc1nc(NS(=O)(=O)c2ccccc2)sc1C(=O)N/N=C/c1ccccc1,IC50,Aminopeptidase N,50.1 µM (active)
O=C1OC(/C(=C\Nc2cc(Cl)ccc2O)[N+](=O)[O-])c2ccccc21 (configuration not stated),IC50,cells,11.7 µM (active)
same,IC50,Aminopeptidase N,48.8 µM (active)
O=C(CSc1nc2ccsc2c(=O)n1Cc1ccccc1)NCc1ccco1,IC50,Bcl-2-related protein A1,> 20 µM (inactive)
same,IC50,[5],18.1 µM (active)
same,IC50,[6],> 20 µM (inactive)
CSC(=S)NN=C(C)c1cccc(C)n1,AC50,[2],23.7 µM (active)
same,IC50,Nonstructural protein 1,1.1 µM (active)
Cc1c(C#N)c(NC(=O)CCl)n(Cc2ccccc2)c1C,AC50,[7],21.5 µM (active)
same,EC50,[8],> 260 µM (inactive)
same,AC50,[4],11.2 µM (active)
same,EC50,Protein RecA,3.39 µM (active)
CCN(CC)CCNC(=O)c1ccc(NC(=O)c2cccc(S(=O)(=O)N3c4ccccc4CC3C)c2)cc1 (configuration not stated),AC50,[4],10.5 µM (active)
Cc1ccc(S(=O)(=O)N(C)C[C@@H]2Oc3ncc(/C=C/c4ccccc4)cc3C(=O)N([C@H](C)CO)C[C@@H]2C)cc1,AC50,[9],2.57 µM (active)
same,AC50,[10],0.577 µM (active)
same,AC50,[11],3.55 µM (active)
Cc1sc2nc(C3CC3)nc(SCC(=O)NCc3ccco3)c2c1C,AC50,[2],5.75 µM (active)
CC(NC(=O)c1ccc(Br)cc1)c1ccc2c(c1)CCCC2 (configuration not stated),AC50,[2],2.75 µM (active)
CCN(CC)S(=O)(=O)c1ccc(C(=O)Oc2coc(CSc3nc(C)cc(C)n3)cc2=O)cc1,IC50,Large T antigen,40.4 µM (active)
O=C1CCC(=O)N1c1nc2n(n1)C(c1ccccc1)C=C(c1ccc(Br)cc1)N2 (configuration not stated),IC50,Aminopeptidase N,69.7 µM (active)
